Measurements: ChEMBL document CHEMBL6096677, “Discovery of HZS60 as a Novel Brain Penetrant NMDAR/TRPM4 Interaction Interface Inhibitor with Improved Activity and Pharmacokinetic Properties for the Treatment of Cerebral Ischemia” (J Med Chem, 2025)

What was measured:
[1] = Tmax in ICR mouse at 5 mg/kg, iv by LC-MS/MS analysis; type: ADME, organism-based; conditions: in vivo
[2] = AUC (0 to t) in ICR mouse at 25 mg/kg, IG by LC-MS/MS analysis; type: ADME, organism-based; conditions: in vivo, po
[3] = Cmax in ICR mouse at 5 mg/kg, iv by LC-MS/MS analysis; type: ADME, organism-based; conditions: in vivo
Cortical neurone [4] = assay: Neuroprotective activity against OGD/R-induced ischemic injury in C57BL/6 mouse primary cortical neurons assessed as cell viability at 10 uM by CCK8 assay (reference value: 21.96 +/- 10.86 %); type: functional; conditions: C57BL/6, Cortical neurone, read-out: Activity
[5] = MRT (0 to infinity) in ICR mouse at 5 mg/kg, iv by LC-MS/MS analysis; type: ADME, organism-based; conditions: in vivo
[6] = AUC (0 to t) in ICR mouse at 5 mg/kg, iv by LC-MS/MS analysis; type: ADME, organism-based; conditions: in vivo
[7] = Cmax in ICR mouse at 25 mg/kg, IG by LC-MS/MS analysis; type: ADME, organism-based; conditions: in vivo, po
[8] = Clearance in ICR mouse at 5 mg/kg, iv by LC-MS/MS analysis; type: ADME, organism-based; conditions: in vivo
[9] = Apparent volume of distribution in ICR mouse at 5 mg/kg, iv by LC-MS/MS analysis; type: ADME, organism-based; conditions: in vivo, read-out: Vz
[10] = Tmax in ICR mouse at 25 mg/kg, IG by LC-MS/MS analysis; type: ADME, organism-based; conditions: in vivo, po
[11] = Half life in ICR mouse at 25 mg/kg, IG by LC-MS/MS analysis; type: ADME, organism-based; conditions: in vivo, po
[12] = AUC (0 to infinity) in ICR mouse at 5 mg/kg, iv by LC-MS/MS analysis; type: ADME, organism-based; conditions: in vivo
[13] = Half life in ICR mouse at 5 mg/kg, iv by LC-MS/MS analysis; type: ADME, organism-based; conditions: in vivo
[14] = MRT (0 to infinity) in ICR mouse at 25 mg/kg, IG by LC-MS/MS analysis; type: ADME, organism-based; conditions: in vivo, po
[15] = MRT (0 to t) in ICR mouse at 5 mg/kg, iv by LC-MS/MS analysis; type: ADME, organism-based; conditions: in vivo
[16] = Oral bioavailability in ICR mouse at 25 mg/kg by LC-MS/MS analysis; type: ADME, organism-based; conditions: in vivo
Cortical neurone [17] = assay: Neuroprotective activity against NMDA-induced excitotoxic cell death in C57BL/6 mouse primary cortical neurons assessed as cell viability at 10 uM by CCK8 assay (reference value: 16.31 +/- 3.19 %); type: functional; conditions: C57BL/6, Cortical neurone, read-out: Activity
[18] = AUC (0 to infinity) in ICR mouse at 25 mg/kg, IG by LC-MS/MS analysis; type: ADME, organism-based; conditions: in vivo, po
[19] = MRT (0 to t) in ICR mouse at 25 mg/kg, IG by LC-MS/MS analysis; type: ADME, organism-based; conditions: in vivo, po

In the case of `CCN(CCN)Cc1cccc(Br)c1`, the Tmax [1] is reported as 4.98 min, the AUC(0-t) [2] is reported as 914 ng·h/mL and the Cmax [3] is reported as 207 ng/mL. For the same compound, the viability at 10 µM (Cortical neurone [4]) was 26.5%, the MRT inf [5] was 2.15 h and the AUC(0-t) [6] was 282 ng·h/mL. The Cmax [7] was 348 ng/mL, the clearance [8] was 293 mL/min/kg and the Vd [9] was 44.1 L/kg. The Tmax [10] was 0.583 h, the half-life [11] was 2.07 h and the AUC(0-inf) [12] was 295 ng·h/mL. For the same compound, the half-life [13] was 1.82 h, the MRT inf [14] was 2.96 h and the MRT last [15] was 1.76 h. It also gave a bioavailability [16] of 66.4%, a viability at 10 µM (Cortical neurone [17]) of 63.2% and an AUC(0-inf) [18] of 980 ng·h/mL. The MRT last [19] was 2.38 h.

For `CCN(CCN)Cc1cc(C#N)ccc1Br`, the viability at 10 µM (Cortical neurone [17]) was 77.8%.

For `CCN(CCN)C(C)c1cccc(Br)c1F` (configuration not stated), the viability at 10 µM (Cortical neurone [4]) was 55.6% and the viability at 10 µM (Cortical neurone [17]) was 77%.

With `CCN(CCN)Cc1cc(Br)ccc1F` the viability at 10 µM (Cortical neurone [17]) was 87.1%.

With `CCN(CCN)C(C)c1cc(C#N)ccc1F` (configuration not stated) the viability at 10 µM (Cortical neurone [4]) was 34.6% and the viability at 10 µM (Cortical neurone [17]) was 82.4%.

For `CCN(CCN)Cc1cc(Br)ccc1Cl`, the viability at 10 µM (Cortical neurone [17]) was 84.9%.

In the case of `CCN(CCN)C1(c2cccc(Br)c2)CC1`, the viability at 10 µM (Cortical neurone [17]) is reported as 39.1%.

Work on `CCN(CCN)Cc1c(F)ccc(Br)c1F` yielded a viability at 10 µM (Cortical neurone [17]) of 97.9%.

For `NC1CCN(Cc2cccc(Br)c2)C1` (configuration not stated), the viability at 10 µM (Cortical neurone [17]) was 20.1%.

`CCN(CCN)Cc1ccc(F)c(Br)c1` gave a viability at 10 µM (Cortical neurone [17]) of 26.6%.

`CCN(CCN)Cc1cc(F)cc(C#N)c1` showed a viability at 10 µM (Cortical neurone [17]) of 24%.

Work on `CCN(CCN)Cc1cccc(Br)c1I` yielded a viability at 10 µM (Cortical neurone [17]) of 11.5%.

With `CCN(CCN)Cc1cccc([N+](=O)[O-])c1` the viability at 10 µM (Cortical neurone [17]) was 36%.

For `CCN(CCN)C(C)c1cccc(C#N)c1` (configuration not stated), the viability at 10 µM (Cortical neurone [4]) was 69.7% and the viability at 10 µM (Cortical neurone [17]) was 85.7%.

Work on `CCN(CCN)C(C)c1cc(C#N)ccc1Br` (configuration not stated) yielded a viability at 10 µM (Cortical neurone [17]) of 55%.

In the case of `CCN(CCN)C(C)(C)c1cccc(Br)c1`, the viability at 10 µM (Cortical neurone [17]) is reported as 52.5%.

Compound `CCN(CCN)Cc1cc(Br)cc(C#N)c1` has a viability at 10 µM (Cortical neurone [17]) of 33%.

For `CCN(CCN)C(C)c1c(F)ccc(Br)c1F` (configuration not stated), the viability at 10 µM (Cortical neurone [17]) was 51.6%.

Compound `CCN(CCN)Cc1cccc(Br)c1F` has a viability at 10 µM (Cortical neurone [17]) of 86.5%.

Compound `NC1CCCN(Cc2cccc(Br)c2)C1` (configuration not stated) has a viability at 10 µM (Cortical neurone [17]) of 33%.

`CCN(CCN)Cc1cccc(-c2ccccc2)c1` showed a viability at 10 µM (Cortical neurone [17]) of 24.9%.

`CCCN(CCN)Cc1cccc(Br)c1` showed a viability at 10 µM (Cortical neurone [17]) of 44.6%.

`CCN(CCNC)Cc1cccc(Br)c1` showed a viability at 10 µM (Cortical neurone [17]) of 17.6%.

`CCN(CCN)Cc1cccc(C#N)c1F` gave a viability at 10 µM (Cortical neurone [17]) of 79.7%.

Work on `CCN(CCN)Cc1cc(C#N)ccc1Cl` yielded a viability at 10 µM (Cortical neurone [17]) of 86.5%.

Compound `CCN(CCN)C(C)c1cccc(C#N)c1Br` (configuration not stated) has a viability at 10 µM (Cortical neurone [4]) of 43.2% and a viability at 10 µM (Cortical neurone [17]) of 67.4%.

In the case of `CCN(CCN)C(C)c1cc(Br)ccc1Cl` (configuration not stated), the viability at 10 µM (Cortical neurone [4]) is reported as 46.6% and the viability at 10 µM (Cortical neurone [17]) is reported as 81.6%.

For `CCN(CCN)Cc1cc(F)cc(Br)c1`, the viability at 10 µM (Cortical neurone [17]) was 18.3%.

Compound `CCN(CCN1CCCC1)Cc1cccc(Br)c1` has a viability at 10 µM (Cortical neurone [17]) of 19.3%.

Compound `CCN(CCN)Cc1cccc(Cl)c1` has a viability at 10 µM (Cortical neurone [17]) of 44.3%.

Work on `CCN(CCN)Cc1ccc(Br)cc1` yielded a viability at 10 µM (Cortical neurone [17]) of 21.2%.

In the case of `CCN(CCN)C(C)c1cccc(Br)c1` (configuration not stated), the viability at 10 µM (Cortical neurone [4]) is reported as 53.2% and the viability at 10 µM (Cortical neurone [17]) is reported as 95.9%.

`CCN(CCN)C(C)c1cc(Br)ccc1Br` (configuration not stated) showed a viability at 10 µM (Cortical neurone [17]) of 46.6%.

`CCN(CCN(C)C)Cc1cccc(Br)c1` showed a viability at 10 µM (Cortical neurone [17]) of 18.4%.

In the case of `CCN(CCN)Cc1c(F)ccc(C#N)c1F`, the viability at 10 µM (Cortical neurone [17]) is reported as 90.4%.

With `CCN(CCN)C(C)c1c(Cl)ccc(C#N)c1F` (configuration not stated) the viability at 10 µM (Cortical neurone [4]) was 38.8% and the viability at 10 µM (Cortical neurone [17]) was 64.5%.

In the case of `CCN(CCN)Cc1cccc(Br)c1Br`, the viability at 10 µM (Cortical neurone [17]) is reported as 86.5%.

With `CCN(CCN)Cc1ccccc1Br` the viability at 10 µM (Cortical neurone [17]) was 46.2%.

For `CCC(c1cccc(Br)c1)N(CC)CCN` (configuration not stated), the viability at 10 µM (Cortical neurone [17]) was 38.3%.

`CCN(CCN)Cc1cccc(C#N)c1Cl` gave a viability at 10 µM (Cortical neurone [17]) of 93.1%.

For `CCN(CCN)C(C)c1cccc(C#N)c1F` (configuration not stated), the viability at 10 µM (Cortical neurone [4]) was 44.5% and the viability at 10 µM (Cortical neurone [17]) was 70.4%.

`CCN(CCN)C(C)c1cc(C#N)ccc1Cl` (configuration not stated) showed a viability at 10 µM (Cortical neurone [4]) of 61.1% and a viability at 10 µM (Cortical neurone [17]) of 77.7%.

With `CCN(CCN)Cc1c(Cl)ccc(C#N)c1F` the viability at 10 µM (Cortical neurone [17]) was 82.9%.

For `CCN(CCN)Cc1c(F)ccc(C#N)c1Cl`, the viability at 10 µM (Cortical neurone [17]) was 88%.

`CCN(CCN)C(C)c1cccc(C#N)c1Cl` (configuration not stated) gave a viability at 10 µM (Cortical neurone [4]) of 59.8% and a viability at 10 µM (Cortical neurone [17]) of 85.3%.

For `CCN(CCN)Cc1cccc(OC)c1`, the viability at 10 µM (Cortical neurone [17]) was 39.6%.

Work on `CCN(CCN)Cc1cccc(C)c1` yielded a viability at 10 µM (Cortical neurone [17]) of 22.7%.

Compound `CCN(CCN)Cc1cccc(I)c1` has a viability at 10 µM (Cortical neurone [17]) of 44%.

Work on `CCN(CCN)Cc1ccc(Br)c(C#N)c1` yielded a viability at 10 µM (Cortical neurone [17]) of 22.2%.

Compound `CCN(CCN)C(C)c1cc(Br)ccc1F` (configuration not stated) has a viability at 10 µM (Cortical neurone [4]) of 36.6% and a viability at 10 µM (Cortical neurone [17]) of 90.7%.

`CCN(CCN)Cc1cccc(C(F)(F)F)c1` gave a viability at 10 µM (Cortical neurone [17]) of 16.9%.

`CCN(CCN)Cc1cccc(C#N)c1Br` gave a viability at 10 µM (Cortical neurone [17]) of 76.5%.

`CCN(CCN)Cc1cccc(C#N)c1` gave a viability at 10 µM (Cortical neurone [17]) of 92.4%.

With `CCN(CCN)Cc1ccc(Cl)c(C#N)c1` the viability at 10 µM (Cortical neurone [17]) was 22.6%.

Compound `CCN(CCCN)Cc1cccc(Br)c1` has a viability at 10 µM (Cortical neurone [17]) of 10.8%.

Work on `CCN(CCN)Cc1cc(C#N)ccc1I` yielded a viability at 10 µM (Cortical neurone [17]) of 74.6%.

`CCN(CCN)Cc1cc(C#N)ccc1F` showed a viability at 10 µM (Cortical neurone [17]) of 68.1%.

In the case of `CCN(CCN)Cc1ccc(F)c(C#N)c1`, the viability at 10 µM (Cortical neurone [17]) is reported as 24.1%.

Work on `CCN(CCN)Cc1cc(Br)ccc1Br` yielded a viability at 10 µM (Cortical neurone [17]) of 83.4%.

Work on `CCN(CCN)C(C)c1c(F)ccc(C#N)c1Cl` (configuration not stated) yielded a viability at 10 µM (Cortical neurone [4]) of 64.3% and a viability at 10 µM (Cortical neurone [17]) of 70.5%.

In the case of `CCN(CCN)Cc1cccc(F)c1`, the viability at 10 µM (Cortical neurone [17]) is reported as 32%.

Work on `CCN(CCN)Cc1cccc(Br)c1Cl` yielded a viability at 10 µM (Cortical neurone [17]) of 47.1%.
